Structures are written as SMILES. Like-named read-outs stand apart in the source and are kept apart here.

In this assay the target is T1, hmGlu5 (Homo sapiens, UniProt P41594).
T1 construct: expressed in transfected cells; host or cells: HEK 293A
Put plainly: mGlu5 Ca2+ flux assay in HEK 293A cells (negative allosteric modulation of glutamate EC80 response). Type of assay: cell-based. Conditions: for remaining activity at 30 µM: HEK293-A, read-out: hmGlu5 NAM Emin (%); for IC50: HEK 293A cells, Ca2+ flux, glutamate EC80, >10,000 = decrease without plateau, read-out: hmGlu5 NAM IC50. As for the experimental part:
HEK 293A cells stably expressing either rat or human mGlu5 were plated in black-walled, clear-bottomed, poly-D-lysine coated 384-well plates in 20 μL of assay medium (DMEM containing 10% dialyzed FBS, 20 mM HEPES, 100 units/mL penicillin/streptomycin plus 250 ng/mL Fungizone, and 1 mM sodium pyruvate) at a density of 20K cells/well. The cells were grown overnight at 37° C. in the presence of 5% CO2. The next day, medium was removed and the cells incubated with 20 μL of 2.3 μM Fluo-4, AM prepared as a 2.3 mM stock in DMSO and mixed in a 1:1 ratio with 10% (w/v) pluronic acid F-127 and diluted in assay buffer (Hank's balanced salt solution, 20 mM HEPES, and 2.5 mM probenecid) for 45 minutes at 37° C. Dye was removed, 20 μL of assay buffer was added, and the plate was incubated for 5 minutes at room temperature.
Ca^2+ flux was measured using the Functional Drug Screening System (FDSS7000, Hamamatsu, Japan). After establishment of a fluorescence baseline for about 3 seconds, the compounds of the present invention were added to the cells, and the response in cells was measured. 2.3 minutes later an EC20 concentration of the mGlu5 receptor agonist glutamate was added to the cells, and the response of the cells was measured for 1.9 minutes; an EC80 concentration of agonist was added and readings taken for an additional 1.7 minutes. All test compounds were dissolved and diluted to a concentration of 10 mM in 100% DMSO. Compounds were then serially diluted 1:3 in DMSO into 10 point concentration response curves, transferred to daughter plates, and further diluted into assay buffer to a 2× stock. Calcium fluorescence measures were recorded as fold over basal fluorescence; raw data was then normalized to the maximal response to glutamate. Antagonism of the agonist response of the mGlu5 receptor in the present invention was observed as a decrease in response to nearly maximal concentrations of glutamate in the presence of compound compared to the response to glutamate in the absence of compound.
The raw data file containing all time points was used as the data source in the analysis template. This was saved by the FDSS as a tab-delimited text file. Data were normalized using a static ratio function (F/F0) for each measurement of the total 360 values per well divided by each well's initial value. Data were then reduced to peak amplitudes (Max−Initial Min) using a time range that starts approximately 3 seconds prior to the glutamate EC20/EC80 addition and continues for approximately 90-120 seconds. This is sufficient time to capture the peak amplitude of the cellular calcium response. Individual amplitudes were expressed as % EMax by multiplying each amplitude by 100 and then dividing the product by the mean of the amplitudes derived from the glutamate ECMax-treated wells. IC50 values for test compounds were generated by fitting the normalized values versus the log of the test compound concentration (in mol/L) using a 4 parameter logistic equation where none of the parameters were fixed. Each of the three values collected at each concentration of test compound were weighted evenly.
For NAMs with a CRC that plateaus above 10% Glu Max, the IC50 values are reported, the compound is designated a “partial NAM” and the % Glu Max is reported. […] Compounds without measurable activity are designated as “>30,000 nM” since the top concentration of compound tested in the assay is 30 μM. […]

T1 sequence (P41594 21-1212): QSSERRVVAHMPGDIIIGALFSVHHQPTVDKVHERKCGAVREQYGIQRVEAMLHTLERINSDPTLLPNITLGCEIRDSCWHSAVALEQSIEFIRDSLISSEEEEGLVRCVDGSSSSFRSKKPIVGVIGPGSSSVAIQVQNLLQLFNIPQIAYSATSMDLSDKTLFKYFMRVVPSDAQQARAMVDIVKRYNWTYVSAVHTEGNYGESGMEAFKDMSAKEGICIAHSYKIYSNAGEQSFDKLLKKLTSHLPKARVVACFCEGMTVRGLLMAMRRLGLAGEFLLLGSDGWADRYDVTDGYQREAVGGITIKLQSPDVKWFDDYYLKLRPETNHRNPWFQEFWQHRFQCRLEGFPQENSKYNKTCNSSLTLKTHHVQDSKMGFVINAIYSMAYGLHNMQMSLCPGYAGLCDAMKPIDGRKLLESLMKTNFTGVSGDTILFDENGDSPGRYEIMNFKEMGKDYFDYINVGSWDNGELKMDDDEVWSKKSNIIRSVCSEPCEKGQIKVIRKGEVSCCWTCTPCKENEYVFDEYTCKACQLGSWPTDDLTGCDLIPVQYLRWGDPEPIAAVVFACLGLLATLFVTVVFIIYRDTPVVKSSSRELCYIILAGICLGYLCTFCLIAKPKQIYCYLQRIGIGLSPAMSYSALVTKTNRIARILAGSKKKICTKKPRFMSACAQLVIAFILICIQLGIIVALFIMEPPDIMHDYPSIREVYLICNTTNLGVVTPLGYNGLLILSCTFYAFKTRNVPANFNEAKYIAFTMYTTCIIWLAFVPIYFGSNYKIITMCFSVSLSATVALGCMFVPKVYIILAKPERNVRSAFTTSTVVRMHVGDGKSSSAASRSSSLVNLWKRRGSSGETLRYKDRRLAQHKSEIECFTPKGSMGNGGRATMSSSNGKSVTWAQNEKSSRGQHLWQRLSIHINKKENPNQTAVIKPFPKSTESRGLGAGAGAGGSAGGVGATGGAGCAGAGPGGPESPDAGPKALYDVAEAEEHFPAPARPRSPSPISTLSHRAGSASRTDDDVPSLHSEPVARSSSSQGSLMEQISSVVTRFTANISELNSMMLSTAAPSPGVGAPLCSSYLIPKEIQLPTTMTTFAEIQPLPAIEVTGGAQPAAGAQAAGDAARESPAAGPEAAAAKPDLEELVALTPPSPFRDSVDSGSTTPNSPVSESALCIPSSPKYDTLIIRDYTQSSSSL

A word on the IC50: it is the concentration that inhibits the measured activity by half. Regarding `Cc1nc(-c2noc(-c3ccc(F)cn3)n2)cc(-c2cncc(C(C)(C)O)c2)c1F` [Compound 62, 2-(3′-fluoro-6′-(5-(5-fluoropyridin-2-yl)-1,2,4-oxadiazol-3-yl)-2′-methyl-[3,4′-bipyridin]-5-yl)propan-2-ol], the IC50 turned out to be 1290 nM. In addition, the remaining activity at 30 µM (% Glu max at 30 μM) turned out to be 5%.

`Cc1nc(-c2noc(C3CCOCC3)n2)cc(-c2cncc(F)c2)c1F` [Compound 37, 3-(5,5′-difluoro-6′-methyl-[3,4′-bipyridin]-2′-yl)-5-(tetrahydro-2H-pyran-4-yl)-1,2,4-oxadiazole]: the IC50 is above 10000 nM. The remaining activity at 30 µM (% Glu max at 30 μM) is 54%.

As for `Cc1nc(-c2nnc(-c3cccnc3)o2)cc(-c2cncc(F)c2)c1F` [Compound 80, 2-(5,5′-difluoro-6′-methyl-[3,4′-bipyridin]-2′-yl)-5-(pyridin-3-yl)-1,3,4-oxadiazole], the remaining activity at 30 µM turned out to be 58% and the IC50 is 3340 nM.

On to `Cc1nc(-c2noc(-c3cccc(F)c3)n2)cc(-c2cncc(F)c2)c1F` [Compound 38, 3-(5,5′-difluoro-6′-methyl-[3,4′-bipyridin]-2′-yl)-5-(3-fluorophenyl)-1,2,4-oxadiazole], for which the IC50 came to 2410 nM. For the same compound, the remaining activity at 30 µM (% Glu max at 30 μM) is 14%.

On to `Fc1ccc(-c2nnc(-c3cc(-c4cncc(F)c4)cc(C(F)F)n3)o2)nc1` [Compound 84, 2-(6′-(difluoromethyl)-5-fluoro-[3,4′-bipyridin]-2′-yl)-5-(5-fluoropyridin-2-yl)-1,3,4-oxadiazole], for which the IC50 was 359 nM. In addition, the remaining activity at 30 µM (% Glu max at 30 μM) is 1%.

In the case of `Cc1cc(-c2cncc(F)c2)cc(-c2noc(-c3nc(C)cs3)n2)n1` [Compound 72, 3-(5-fluoro-6′-methyl-[3,4′-bipyridin]-2′-yl)-5-(4-methylthiazol-2-yl)-1,2,4-oxadiazole], the IC50 was determined as 917 nM. Further, the remaining activity at 30 µM (% Glu max at 30 μM) was 11%.

Turning to `Cc1nc(-c2nc(-c3ccc(F)cc3)no2)cc(-c2cncc(F)c2)c1F` [Compound 46, 5-(5,5′-difluoro-6′-methyl-[3,4′-bipyridin]-2′-yl)-3-(4-fluorophenyl)-1,2,4-oxadiazole], the IC50 is 677 nM. The remaining activity at 30 µM (% Glu max at 30 μM) turned out to be 3%.

For `COc1c(-c2cnccc2C)cc(-c2noc(-c3ccc(F)cn3)n2)nc1C` [Compound 10, 5-(5-fluoropyridin-2-yl)-3-(5′-methoxy-4,6′-dimethyl-[3,4′-bipyridin]-2′-yl)-1,2,4-oxadiazole], the IC50 came to 641 nM. Besides, the remaining activity at 30 µM (% Glu max at 30 μM) came out at 2%.

As to `Cc1ccncc1-c1cc(-c2nnc(-c3cccc(F)c3)o2)nc(C)c1F` [Compound 40, 2-(5′-fluoro-4,6′-dimethyl-[3,4′-bipyridin]-2′-yl)-5-(3-fluorophenyl)-1,3,4-oxadiazole], the IC50 came out at 705 nM. Moreover, the remaining activity at 30 µM (% Glu max at 30 μM) worked out at 2%.

For the compound `Cc1nc(-c2noc(-c3ccc(F)cc3)n2)cc(-c2cncc(F)c2)c1F` [Compound 48, 3-(5,5′-difluoro-6′-methyl-[3,4′-bipyridin]-2′-yl)-5-(4-fluorophenyl)-1,2,4-oxadiazole], the IC50 was determined as 81 nM. For the same compound, under “% Glu max at 30 μM”, the remaining activity at 30 µM was 3%.

Consider `Cc1cc(O[C@@H]2CCOC2)cc(-c2noc(-c3nc(C)cs3)n2)n1` [Compound 106, (R)-3-(6-methyl-4-((tetrahydrofuran-3-yl)oxy)pyridin-2-yl)-5-(4-methylthiazol-2-yl)-1,2,4-oxadiazole], for which the IC50 was 387 nM. For the same compound, for the setting “% Glu max at 30 μM”, the remaining activity at 30 µM turned out to be 2%.

Regarding `[2H]C([2H])([2H])Oc1c(-c2cncc(F)c2)cc(-c2nc(-c3ccc(F)cn3)no2)nc1C` [Compound 103, 5-(5-fluoro-5′-(methoxy-d3)-6′-methyl-[3,4′-bipyridin]-2′-yl)-3-(5-fluoropyridin-2-yl)-1,2,4-oxadiazole], the IC50 is 624 nM. Further, the remaining activity at 30 µM (% Glu max at 30 μM) came to 5%.

Take `Cc1ccncc1-c1cc(-c2nc(-c3ccc(F)cn3)no2)ncc1F` [Compound 4, 5-(5′-fluoro-4-methyl-[3,4′-bipyridin]-2′-yl)-3-(5-fluoropyridin-2-yl)-1,2,4-oxadiazole]: the IC50 came out at 166 nM. The remaining activity at 30 µM (% Glu max at 30 μM) was 1%.

As for `Cc1nc(-c2noc(-c3ccc(F)cn3)n2)cc(-c2cc(Cl)cc(C#N)c2)c1F` [Compound 70, 3-chloro-5-(3-fluoro-6-(5-(5-fluoropyridin-2-yl)-1,2,4-oxadiazol-3-yl)-2-methylpyridin-4-yl)benzonitrile], the IC50 is 206 nM. Under “% Glu max at 30 μM”, the remaining activity at 30 µM is 3%.

`Cc1ccncc1-c1cc(-c2noc(-c3cccnn3)n2)nc(C)c1F` [Compound 92, 3-(5′-fluoro-4,6′-dimethyl-[3,4′-bipyridin]-2′-yl)-5-(pyridazin-3-yl)-1,2,4-oxadiazole]: the IC50 is above 10000 nM. For the setting “% Glu max at 30 μM”, the remaining activity at 30 µM is 74%.

For the compound `Cc1nc(-c2noc(-c3ccc(F)cn3)n2)cc(-c2cncc(F)c2C)c1F` [Compound 41, 3-(5,5′-difluoro-4,6′-dimethyl-[3,4′-bipyridin]-2′-yl)-5-(5-fluoropyridin-2-yl)-1,2,4-oxadiazole], the IC50 came out at 304 nM. For the same compound, the remaining activity at 30 µM (% Glu max at 30 μM) turned out to be 2%.

Take `[2H]C([2H])([2H])c1cc(-c2cncc(F)c2)cc(-c2noc(-c3ccc(F)cn3)n2)n1` [Compound 35, 3-(5-fluoro-6′-(methyl-d3)-[3,4′-bipyridin]-2′-yl)-5-(5-fluoropyridin-2-yl)-1,2,4-oxadiazole]: the IC50 came to 207 nM. For the same compound, the remaining activity at 30 µM (% Glu max at 30 μM) is 2%.

As for `Cc1nc(-c2noc(-c3ccc(F)cn3)n2)cc(-c2ccc(Cl)nc2)c1F` [Compound 34, 3-(6-chloro-5′-fluoro-6′-methyl-[3,4′-bipyridin]-2′-yl)-5-(5-fluoropyridin-2-yl)-1,2,4-oxadiazole], the IC50 came to 577 nM. The remaining activity at 30 µM (% Glu max at 30 μM) came out at 8%.

Consider `Cc1nc(-c2noc(-c3ccc(F)cn3)n2)cc(-c2ccc(C3CC3)nc2)c1F` [Compound 31, 3-(6-cyclopropyl-5′-fluoro-6′-methyl-[3,4′-bipyridin]-2′-yl)-5-(5-fluoropyridin-2-yl)-1,2,4-oxadiazole], for which the IC50 is 3090 nM. For the same compound, the remaining activity at 30 µM (% Glu max at 30 μM) turned out to be 20%.

For the compound `Cc1nc(-c2nc(-c3ccc(F)cn3)no2)cc(-c2cnn(C(F)F)c2)c1F` [Compound 9, 5-(4-(1-(difluoromethyl)-1H-pyrazol-4-yl)-5-fluoro-6-methylpyridin-2-yl)-3-(5-fluoropyridin-2-yl)-1,2,4-oxadiazole], the IC50 turned out to be 328 nM. For the same compound, the remaining activity at 30 µM (% Glu max at 30 μM) was determined as 2%.

As to `Cc1nc(-c2nnc(-c3ccc(F)cc3)o2)cc(-c2cncc(F)c2)c1F` [Compound 82, 2-(5,5′-difluoro-6′-methyl-[3,4′-bipyridin]-2′-yl)-5-(4-fluorophenyl)-1,3,4-oxadiazole], the remaining activity at 30 µM was determined as 2% and the IC50 was 778 nM.

Consider `Cc1cccc(-c2nc(-c3cc(-c4cnccc4C)c(F)c(C)n3)no2)n1` [Compound 22, 3-(5′-fluoro-4,6′-dimethyl-[3,4′-bipyridin]-2′-yl)-5-(6-methylpyridin-2-yl)-1,2,4-oxadiazole], for which the IC50 was 1090 nM. For the same compound, the remaining activity at 30 µM (% Glu max at 30 μM) was found to be 3%.

On to `Cc1nc(-c2noc(C3CCCCC3)n2)cc(-c2cncc(F)c2)c1F` [Compound 36, 5-cyclohexyl-3-(5,5′-difluoro-6′-methyl-[3,4′-bipyridin]-2′-yl)-1,2,4-oxadiazole], for which the IC50 is above 10000 nM. Also, the remaining activity at 30 µM (% Glu max at 30 μM) came out at 51%.

`Cc1ccncc1-c1cc(-c2nc(-c3cccc(F)c3)c[nH]2)nc(C)c1F` [Compound 63, 3′-fluoro-6′-(4-(3-fluorophenyl)-1H-imidazol-2-yl)-2′,4-dimethyl-3,4′-bipyridine]: the IC50 was found to be 1090 nM. For the same compound, where the note is “% Glu max at 30 μM”, the remaining activity at 30 µM was found to be 4%.

Values taken from patent US20250026743A1, “HETEROARYL-LINKED ANALOGS AS MGLU5 NEGATIVE ALLOSTERIC MODULATORS AND METHODS OF MAKING AND USING THE SAME” (Vanderbilt University, priority 2021, published 2025).
